{
  "source": "paper PMC2910436",
  "about": "(Cell, 2010)",
  "key": {"BDH2 (DHRS6)": {"target": "BDH2 (DHRS6) (Mus musculus, UniProt Q8JZV9)", "sequence (Q8JZV9 whole entry)": "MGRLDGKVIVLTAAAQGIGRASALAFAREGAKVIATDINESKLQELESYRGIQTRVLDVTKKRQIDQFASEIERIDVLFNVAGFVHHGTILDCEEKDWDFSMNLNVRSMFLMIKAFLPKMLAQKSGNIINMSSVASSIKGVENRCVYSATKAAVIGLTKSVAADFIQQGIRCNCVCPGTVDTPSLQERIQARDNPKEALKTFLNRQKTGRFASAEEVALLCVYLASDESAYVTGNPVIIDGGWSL", "assay": "NADH formation at […] nm", "type": "biochemical", "details": "co-substrate 2,3-diDHBA"}, "EntA": {"target": "EntA (Escherichia coli, UniProt P15047)", "sequence (P15047 whole entry)": "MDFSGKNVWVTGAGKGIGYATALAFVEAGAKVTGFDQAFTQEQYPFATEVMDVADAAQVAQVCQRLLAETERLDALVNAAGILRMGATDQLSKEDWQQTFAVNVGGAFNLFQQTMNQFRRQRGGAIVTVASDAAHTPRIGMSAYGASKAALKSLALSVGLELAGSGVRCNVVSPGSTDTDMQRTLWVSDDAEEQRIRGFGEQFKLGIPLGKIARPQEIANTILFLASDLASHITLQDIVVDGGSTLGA", "assay": "NADH formation at […] nm", "type": "biochemical", "details": "co-substrate 2,3-diDHBA"}},
  "data": [
    {"smiles": "NC(=O)c1ccc[n+]([C@@H]2O[C@H](COP(=O)(O)OP(=O)(O)OC[C@H]3O[C@@H](n4cnc5c(N)ncnc54)[C@H](O)[C@@H]3O)[C@@H](O)[C@H]2O)c1", "note": "[NAD^+]", "values": [
      {"measurement": "NADH formation at 340 nm", "setting": "BDH2 (DHRS6)", "result": "wild-type EntA and BDH2 proteins, but not their mutant derivatives, catalyzed the conversion of NAD"},
      {"measurement": "NADH formation at 340 nm", "setting": "EntA", "result": "wild-type EntA and BDH2 proteins, but not their mutant derivatives, catalyzed the conversion of NAD"}
    ]}
  ]
}
